In patent US20200172483A1, “HETEROCYCLIC SMALL MOLECULE MODULATORS OF HUMAN STING” (Curadev Pharma Limited, priority 2017, published 2020):

target: T1, WT/R232 STING protein (Homo sapiens, UniProt Q86WV6, H232R); assay: Luciferase reporter assay in HEK293T-hSTING-Luciferase cells (R232); assay type: cell-based; details: 20 hr stimulation, EC50 range
T1 construct: host or cells: HEK293T
From the text: • a) Stable STING expressing cells—Stable HEK293T STING-expressing cell lines were generated using plasmids purchased from Invivogen, CA, USA, that contain STING cDNA cloned into the pUNO-1 vector under hEF1-HTLV promoter and containing the Blasticidin selection cassette. The plasmids hSTING (R232), hSTING (H232), hSTING (HAQ) were directly procured from Invivogen while hSTING (AQ) and hSTING (Q) were derived from hSTING (HAQ) and hSTING (R232) plasmids respectively by using a PCR based site directed mutagenesis method. These vectors were individually transfected into HEK293T cells using Lipofectamine (Invitrogen) and transfected cells were selected under Blasticidin selection. These transfected cells were further subjected to clonal selection using the limiting dilution method to obtain clonally pure populations of HEK cells transfected with each of the above mentioned human STING variants. Only those clones were selected in which ligand independent activation of STING was minimal. • b) Stable Luciferase reporter gene expressing cells—Stable HEK293T Luciferase reporter gene expressing cell lines were generated using pCDNA4 plasmids under an IRF-inducible promoter. This promoter is comprised of five tandem interferon-stimulated response elements (ISRE) fused to an ISG54 minimal promoter. This vector was transfected into HEK293T cells using Lipofectamine (Invitrogen) and transfected cells were selected under Zeocin selection. These transfected cells were further subjected to clonal selection using the limiting dilution method to obtain clonally pure populations of HEK cells transfected the Luciferase reporter construct. Only those clones were selected in which ligand independent induction of luciferase was minimal.
5×10^5 clonally selected HEK293T-hSTING-Luciferase cells were seeded in 384-well plates in growth medium and stimulated with novel compounds. After 20 hr of stimulation supernatant were removed and secretary reporter gene activity were measured using the Quanti-Luc detection system (Invivogen) on a Spectramax i3X luminometer.
All compounds were first tested in a primary screen using WT/R232 STING protein to obtain a ‘fold-induction’ over baseline levels of protein activity.

T1 sequence (Q86WV6 whole entry H232R): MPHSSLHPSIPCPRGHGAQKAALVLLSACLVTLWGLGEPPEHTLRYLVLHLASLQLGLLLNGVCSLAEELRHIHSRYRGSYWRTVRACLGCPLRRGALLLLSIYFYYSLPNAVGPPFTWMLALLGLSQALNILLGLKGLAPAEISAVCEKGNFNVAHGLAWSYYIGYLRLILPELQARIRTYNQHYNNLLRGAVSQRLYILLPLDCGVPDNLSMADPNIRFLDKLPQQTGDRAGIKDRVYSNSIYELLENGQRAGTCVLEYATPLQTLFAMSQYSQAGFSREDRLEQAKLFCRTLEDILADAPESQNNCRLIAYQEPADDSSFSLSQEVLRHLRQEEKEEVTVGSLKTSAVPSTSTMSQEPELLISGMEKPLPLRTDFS

Compound | EC50 [µM]
Cc1ccc(CNC(=O)c2ccc3c(c2)N(CCc2ccccc2)C(=O)C3(C)C)o1 [Example 59, 3,3-dimethyl-N-((5-methylfuran-2-yl)methyl)-2-oxo-1-phenethylindoline-6-carboxamide] | 1 to 10
CC1(C)C(=O)N(Cc2ccncc2)c2nc(C(=O)NCc3c(F)cc(F)cc3F)ccc21 [Example 184, 3,3-dimethyl-2-oxo-1-(pyridin-4-ylmethyl)-N-(2,4,6-trifluorobenzyl)-2,3-dihydro-1H-pyrrolo[2,3-b]pyridine-6-carboxamide] | 1 to 10
CC1C(=O)N(Cc2c(F)cccc2Cl)c2cc(C(=O)NCc3c(F)cc(F)cc3F)ccc21 (stereo not shown) [Example 21, 1-(2-chloro-6-fluorobenzyl)-3-methyl-2-oxo-N-(2,4,6-trifluorobenzyl)indoline-6-carboxamide] | > 10
O=C(NCc1ccco1)c1ccc2c(c1)N(Cc1c(F)cccc1Cl)S(=O)(=O)C2 [Example 140, 1-(2-chloro-6-fluorobenzyl)-N-(furan-2-ylmethyl)-1,3-dihydrobenzo[c]isothiazole-6-carboxamide 2,2-dioxide] | > 10
Cn1nccc1CN1C(=O)C(C)(C)c2ccc(C(=O)NCc3c(F)cc(F)cc3F)cc21 [Example 77, 3,3-dimethyl-1-((1-methyl-1H-pyrazol-5-yl)methyl)-2-oxo-N-(2,4,6-trifluorobenzyl)indoline-6-carboxamide] | 1 to 10
Cc1ccc(CNC(=O)c2ccc3c(c2)N(C(C)c2ccc(F)cc2)C(=O)C3(C)C)o1 (stereo not shown) [Example 123, 1-(1-(4-fluorophenyl)ethyl)-3,3-dimethyl-N-((5-methylfuran-2-yl)methyl)-2-oxoindoline-6-carboxamide] | 1 to 10
CC1(C)C(=O)N(Cc2cccc(C(F)(F)F)c2)c2cc(C(=O)NCc3c(F)cc(F)cc3F)ccc21 [Example 17, 3,3-dimethyl-2-oxo-N-(2,4,6-trifluorobenzyl)-1-(3-(trifluoromethyl)benzyl)indoline-6-carboxamide] | 1 to 10
CC1(O)C(=O)N(Cc2c(F)cccc2Cl)c2cc(C(=O)NCc3c(F)cc(F)cc3F)ccc21 (stereo not shown) [Example 143, 1-(2-Chloro-6-fluorobenzyl)-3-hydroxy-3-methyl-2-oxo-N-(2,4,6-trifluorobenzyl)indoline-6-carboxamide] | > 10
CC1(C)C(=O)N(Cc2ccccc2F)c2cc(C(=O)NCc3ccco3)ccc21 [Example 1, 1-(2-Fluorobenzyl)-N-(furan-2-ylmethyl)-3,3-dimethyl-2-oxoindoline-6-carboxamide] | 1 to 10
CC1(C)C(=O)N(Cc2c(F)cccc2Cl)c2cc(C(=O)NCc3cc4cc([N+](=O)[O-])ccc4o3)ccc21 [Example 94, 1-(2-chloro-6-fluorobenzyl)-3,3-dimethyl-N-((5-nitrobenzofuran-2-yl)methyl)-2-oxoindoline-6-carboxamide] | 1 to 10
CC1(C)c2ccc(C(=O)NCc3c(F)cc(F)cc3F)cc2N(Cc2c(F)cccc2Cl)S1(=O)=O [Example 134, 1-(2-Chloro-6-fluorobenzyl)-3,3-dimethyl-N-(2,4,6-trifluorobenzyl)-1,3-dihydrobenzo[c]isothiazole-6-carboxamide 2,2-dioxide] | > 10
CC1(CCN2CCOCC2)C(=O)N(Cc2cc(F)cc(F)c2)c2cc(C(=O)NCc3c(F)cc(F)cc3F)ccc21 (stereo not shown) [Example 171, 1-(3,5-difluorobenzyl)-3-methyl-3-(2-morpholinoethyl)-2-oxo-N-(2,4,6-trifluorobenzyl)indoline-6-carboxamide] | > 10
CC1(C)CN(C(=O)c2c(F)cccc2Cl)c2cc(C(=O)NCc3ccco3)ccc21 [Example 132, 1-(2-chloro-6-fluorobenzoyl)-N-(furan-2-ylmethyl)-3,3-dimethylindoline-6-carboxamide] | > 10
CC1(C)C(=O)N(Cc2ccncc2)c2cc(C(=O)NCc3c(F)cc(F)cc3F)ccc21 [Example 22, 3,3-dimethyl-2-oxo-1-(pyridin-4-ylmethyl)-N-(2,4,6-trifluorobenzyl)indoline-6-carboxamide] | 1 to 10
Cc1cnc(CNC(=O)c2ccc3c(c2)N(Cc2c(F)cccc2Cl)C(=O)C3(C)C)o1 [Example 126, 1-(2-chloro-6-fluorobenzyl)-3,3-dimethyl-N-((5-methyloxazol-2-yl)methyl)-2-oxoindoline-6-carboxamide] | 1 to 10
CC1(C)C(=O)N(Cc2cc(F)cc(F)c2)c2cc(C(=O)NCc3cccc(C#N)c3)ccc21 [Example 44, N-(3-cyanobenzyl)-1-(3,5-difluorobenzyl)-3,3-dimethyl-2-oxoindoline-6-carboxamide] | > 10
Cc1cc(CN2C(=O)C(C)(C)c3ccc(C(=O)NCc4c(F)cc(F)cc4F)nc32)ccn1 [Example 185, 3,3-dimethyl-1-((2-methylpyridin-4-yl)methyl)-2-oxo-N-(2,4,6-trifluorobenzyl)-2,3-dihydro-1H-pyrrolo[2,3-b]pyridine-6-carboxamide] | 1 to 10
Cc1ncc(CN2C(=O)C(C)(C)c3ccc(C(=O)NCc4c(F)cc(F)cc4F)cc32)s1 [Example 58, 3,3-dimethyl-1-((2-methylthiazol-5-yl)methyl)-2-oxo-N-(2,4,6-trifluorobenzyl)indoline-6-carboxamide] | 1 to 10
Cc1cccc(F)c1CN1C(=O)C(C)(C)c2ccc(C(=O)NCc3ccc(F)cc3)nc21 [Example 194, 1-(2-fluoro-6-methylbenzyl)-N-(4-fluorobenzyl)-3,3-dimethyl-2-oxo-2,3-dihydro-1H-pyrrolo[2,3-b]pyridine-6-carboxamide] | 1 to 10
CC1(C)C(=O)N(Cc2cc(F)cc(F)c2)c2cc(C(=O)NCC3CCC(F)(F)CC3)ccc21 [Example 43, 1-(3,5-difluorobenzyl)-N-((4,4-difluorocyclohexyl)methyl)-3,3-dimethyl-2-oxoindoline-6-carboxamide] | > 10

Now from value to compound:

EC50 [µM] | Compound
> 10 | O=C(NCc1ccco1)c1ccc2c(c1)N(Cc1c(F)cccc1Cl)C(=O)C21CC1 [Example 139, 1′-(2-chloro-6-fluorobenzyl)-N-(furan-2-ylmethyl)-2′-oxospiro[cyclopropane-1,3′-indoline]-6′-carboxamide]
> 10 | Cc1oc(-c2ccccc2)nc1CN1C(=O)C(C)(C)c2ccc(C(=O)NCc3c(F)cc(F)cc3F)cc21 [Example 91, 3,3-dimethyl-1-((5-methyl-2-phenyloxazol-4-yl)methyl)-2-oxo-N-(2,4,6-trifluorobenzyl)indoline-6-carboxamide]
1 to 10 | CC1(C)C(=O)N(Cc2cccc(C(N)=O)c2)c2cc(C(=O)NCc3ccc(F)cc3F)ccc21 [Example 38, 1-(3-carbamoylbenzyl)-N-(2,4-difluorobenzyl)-3,3-dimethyl-2-oxoindoline-6-carboxamide]
> 10 | CC1(C)C(=O)N(Cc2cc(F)cc(F)c2)c2c1ccc(C(=O)NCc1cc3ccccc3o1)c2F [Example 34, N-(benzofuran-2-ylmethyl)-1-(3,5-difluorobenzyl)-7-fluoro-3,3-dimethyl-2-oxoindoline-6-carboxamide]
> 10 | CC1(C)C(=O)N(Cc2cc(F)cc(F)c2)c2cc(C(=O)NCc3c(F)cc(F)cc3F)ncc21 [Example 186, 1-(3,5-difluorobenzyl)-3,3-dimethyl-2-oxo-N-(2,4,6-trifluorobenzyl)-2,3-dihydro-1H-pyrrolo[3,2-c]pyridine-6-carboxamide]
1 to 10 | CC1(C)C(=O)N(Cc2ccc(F)c(F)c2)c2cc(C(=O)NCc3ccco3)ccc21 [Example 46, 1-(3,4-difluorobenzyl)-N-(furan-2-ylmethyl)-3,3-dimethyl-2-oxoindoline-6-carboxamide]
1 to 10 | CC1(C)C(=O)N(Cc2ccc(F)cc2)c2cc(C(=O)NCc3ccco3)ccc21 [Example 41, 1-(4-fluorobenzyl)-N-(furan-2-ylmethyl)-3,3-dimethyl-2-oxoindoline-6-carboxamide]
> 10 | Cc1nc(CN2C(=O)C(C)(C)c3ccc(C(=O)NCc4c(F)cc(F)cc4F)cc32)co1 [Example 83, 3,3-dimethyl-1-((2-methyloxazol-4-yl)methyl)-2-oxo-N-(2,4,6-trifluorobenzyl)indoline-6-carboxamide]
1 to 10 | Cn1nc(C(F)(F)F)cc1CN1C(=O)C(C)(C)c2ccc(C(=O)NCc3c(F)cc(F)cc3F)cc21 [Example 113, 3,3-dimethyl-1-((1-methyl-3-(trifluoromethyl)-1H-pyrazol-5-yl)methyl)-2-oxo-N-(2,4,6-trifluorobenzyl)indoline-6-carboxamide]
> 10 | CCC1(O)C(=O)N(Cc2c(F)cccc2Cl)c2cc(C(=O)NCc3c(F)cc(F)cc3F)ccc21 (stereo not shown) [Example 158, 1-(2-chloro-6-fluorobenzyl)-3-ethyl-3-hydroxy-2-oxo-N-(2,4,6-trifluorobenzyl)indoline-6-carboxamide]
> 10 | CC1(CCCO)C(=O)N(Cc2c(F)cccc2Cl)c2cc(C(=O)NCc3c(F)cc(F)cc3F)ccc21 (stereo not shown) [Example 177, 1-(2-chloro-6-fluorobenzyl)-3-(3-hydroxypropyl)-3-methyl-2-oxo-N-(2,4,6-trifluorobenzyl)indoline-6-carboxamide]
